Tests used:
HCT-116 cells = assay: MTT cytotoxicity assay, HCT-116; format: cell-based, human; conditions: for IC50: Homo sapiens, HCT-116; for Selectivity Index (SI) HCT-116: IC50 NHDF-Neo / IC50 HCT-116, 72 h incubation; for inhibition of cell growth at the highest doses, HCT-116: 72 h
Method: (§1) An in vitro biological test package was performed for the obtained derivatives. […] The MTT test is a colorimetric method for detecting proliferating cells. It is based on the ability of the enzyme mitochondrial dehydrogenase to convert yellow tetrazole salt (MTT) into purple formazan. The amount of the product formed in the reaction, determined spectrophotometrically, is proportional to the number of living cells.
(§2) The in vitro cytotoxicity of the test compounds was determined by the MTT (3-[4,5–dimethylthiazol-2-yl]-2,5-diphenyltetrazolium bromide) test (Sigma-Aldrich, Taufkirchen, Germany) according to the manufacturer’s protocol. At the beginning, for each cell line were determined the optimal seeding densities to ensure exponential growth throughout the experimental period. The confluent layer of cells were trypsinized, collected, and suspended in a growth medium. […] Then, the culture medium was replaced with solutions of different concentrations of test compounds in a fresh medium. Stock solutions of test compounds were prepared in DMSO and diluted to final concentrations with appropriate volumes of the growth medium directly before the experiment. Cells suspended in a medium supplemented with 0.5% DMSO (the amount of DMSO necessary to dissolve the highest dose of the respective sample) were used as a control of the experiment. […] The compound-treated cells were incubated for a further 24–72 h. […] After this time, the MTT dye was carefully removed, and the acquired formazan crystals were dissolved by DMSO (Chempur, Piekary Śląskie, Poland). The proliferation was evaluated by measuring the formazan product’s absorbance at a wavelength of 570 nm with a microplate spectrophotometer (Epoch, BioTek, Winooski, VT, USA). All experiments were conducted in triplicate with four technical repeats for each tested concentration. Results were expressed as the percentage change in the viability of the test cells relative to the untreated control cells and calculated as the inhibitory concentration (IC50). […] The results are expressed as the average value ± standard deviation (SD).

MCF-7 cells [1] = assay: MTT cytotoxicity assay, MCF-7; format: cell-based, human; conditions: for IC50: Homo sapiens, MCF7, incubation time 72 h; for Selectivity Index (SI) MCF-7: IC50 NHDF-Neo / IC50 MCF-7, 72 h incubation; for inhibition of cell growth at the highest doses, MCF-7: 72 h
Method: as §1, §2

MCF-7 cells [2] = assay: Annexin V-FITC/PI apoptosis flow cytometry, MCF-7; format: cell-based, human; conditions: IC50 dose, 24 h
Description: (§3) Apoptosis is a natural biological process involving programmed cell death and plays an important role in maintaining correct homeostasis between cell proliferation and cell death. This is in contrast to necrosis, which is accompanied by acute inflammation, preceded by cell degradation due to the loss of the integrity of the cell membrane. It is possible to distinguish viable cells from apoptotic and necrotic cell fractions using Annexin V-FITC and Propidium Iodide (PI). Annexin V-FITC labels phosphatidylserine residues that, after the start of apoptosis, are located on the outer surface of the cell membrane, enabling the identification of cells in the early stages of apoptosis. PI binds stoichiometrically to intracellular DNA during late apoptosis and necrosis when the cell membrane has been damaged. This combination allows for the differentiation of early apoptotic (A+/P−), late apoptotic (A+/P+), necrosis (A−/P+), and normal (A−/P−) cells that can be quantified by flow cytometry.
The cell cycle and the type of cell death induced by the test compounds were measured by using flow cytometry according to the manufacturer’s protocol. […] Control cells were grown with fresh medium supplemented with 0.5% DMSO. After 24 h of incubation, the cells were collected by trypsinization. Then, samples were centrifuged (3 min, 2000 rpm, RT) and washed with PBS, after which the cells were centrifuged again (3 min, 2000 rpm, RT) and the supernatant was carefully removed. The resulting precipitate contained cells, which were used for flow cytometry experiments.
The fraction of dead cells after treatment with the test compounds were detected using the FITC Annexin-V Apoptosis Detection Kit with PI (BioLegend, San Diego, CA, USA). […] 250 μL of the Annexin-V Binding Buffer was then added and the samples were incubated in the dark on ice for 15 min.

NHDF-Neo cells = assay: Annexin V-FITC/PI apoptosis flow cytometry, NHDF-Neo; format: cell-based; conditions: IC50 dose, 24 h
Description: as §3, with “This is important information from the point of view of drug design, as it provides detailed information on the cytotoxicity of a compound. Apoptosis” for “Apoptosis”, “cytometry. The experiments were performed on the HCT-116 and MCF-7 cancer cell lines and the NHDF-Neo healthy cell line. […] The results of the level of apoptosis induction by the tested compounds are presented in Figure 7 and in the Supplementary Materials (Figure S73).” for “cytometry.”
The cell cycle and the type of cell death induced by the test compounds were measured by using flow cytometry according to the manufacturer’s protocol. The cells were seeded into 6-well plates at a density of 3 × 10^5 (HCT-116) or 4 × 10^5 (MCF-7, NHDF-Neo) per well (3 mL) and allowed to attach for 24 h under standard conditions with 5% CO2 at 37 °C. The following day, the medium was removed and cells were treated with solutions of test compounds in fresh medium at a dose equal to their IC50 values. Control cells were grown with fresh medium supplemented with 0.5% DMSO. After 24 h of incubation, the cells were collected by trypsinization. Then, samples were centrifuged (3 min, 2000 rpm, RT) and washed with PBS, after which the cells were centrifuged again (3 min, 2000 rpm, RT) and the supernatant was carefully removed. The resulting precipitate contained cells, which were used for flow cytometry experiments.
The fraction of dead cells after treatment with the test compounds were detected using the FITC Annexin-V Apoptosis Detection Kit with PI (BioLegend, San Diego, CA, USA). First, cells were suspended in 50 μL of cold Annexin-V Binding Buffer (BioLegend, San Diego, CA, USA) and incubated in the dark with 2.5 μL of antibody Annexin-V FITC and 10 μL of propidium iodide (PI) at 37 °C for 20 min. 250 μL of the Annexin-V Binding Buffer was then added and the samples were incubated in the dark on ice for 15 min. Cytometric analyses were performed using an Aria III flow cytometer (Becton Dickinson, Franklin Lakes, NJ, USA) with the FITC configuration (488 nm excitation; emission: LP mirror 503, BP filter 530/30) or PE configuration (547 nm excitation; emission: 585 nm) and at least 10,000 cells were counted.

SMILES	IC50 (HCT-116 cells; MTT, incubation time 24 h) [µM]	IC50 (HCT-116 cells; MTT, incubation time 72 h) [µM]	Selectivity Index (SI) HCT-116 (HCT-116 cells)	inhibition of cell growth at the highest doses, HCT-116 (HCT-116 cells; MTT) [%]	IC50 (MCF-7 cells [1]; MTT) [µM]	Selectivity Index (SI) MCF-7 (MCF-7 cells [1])	inhibition of cell growth at the highest doses, MCF-7 (MCF-7 cells [1]; MTT) [%]	apoptotic cells, MCF-7 (MCF-7 cells [2]) [%]	normal cells remained, NHDF-Neo (NHDF-Neo cells) [%]	dead cell fraction, NHDF-Neo (NHDF-Neo cells) [%]	apoptosis induction in words, MCF-7 (MCF-7 cells [2])	cells in late apoptosis, NHDF-Neo (NHDF-Neo cells) [%]	necrotic cells, NHDF-Neo (NHDF-Neo cells) [%]	growth inhibitory activity in words, HCT-116 (HCT-116 cells; MTT)	growth inhibitory activity in words, MCF-7 (MCF-7 cells [1]; MTT)
CC(=O)OC1O[C@H](Cn2cc(COc3cccc4cccnc34)nn2)[C@@H](OC(C)=O)[C@H](OC(C)=O)[C@H]1OC(C)=O (stereo partly shown) [Compound A-1]	83.5 ± 1.91	12 ± 0.9	10.83	100	52.8 ± 0.75	2.46	100	35	98						
OC1O[C@H](Cn2cc(COc3cccc4cccnc34)nn2)[C@@H](O)[C@H](O)[C@H]1O (stereo partly shown) [Compound A-2]	191 ± 2.46	22.3 ± 0.7	14.21	100	54.9 ± 8.71	5.78	100	39	95						
O[C@@H]1[C@@H](O)[C@@H](O[C@H]2O[C@H](Cn3cc(COc4cccc5cccnc45)nn3)[C@@H](O)[C@H](O)[C@H]2O)O[C@H](Cn2cc(COc3cccc4cccnc34)nn2)[C@H]1O [Compound D-2]	53.4 ± 5.14	21.3 ± 0.94	3.32		34 ± 0.95	2.08		70		51					
CC(=O)OC[C@H]1O[C@@H](n2cc(COc3cccc4cccnc34)nn2)[C@H](OC(C)=O)[C@@H](OC(C)=O)[C@@H]1OC(C)=O [Compound E-1, reference compound]		45.7 ± 1.81	1.21	100	57.7 ± 3.32	0.96	100				did not induce apoptosis	61	14		
OC[C@H]1O[C@@H](n2cc(COc3cccc4cccnc34)nn2)[C@H](O)[C@@H](O)[C@@H]1O [Compound E-2, reference compound]	212 ± 7.71	162 ± 5.97	1.43		185 ± 2.21	1.26						57	9	practically did not affect the cell viability	practically did not affect the cell viability

From paper PMC9607644, “Glycoconjugation of Quinoline Derivatives Using the C-6 Position in Sugars as a Strategy for Improving the Selectivity and Cytotoxicity of Functionalized Compounds” (Molecules, 2022)
